# Results published in article PMC12397098, “3-Monothiopomalidomide, a new immunomodulatory imide drug (IMiD), blunts inflammation and mitigates ischemic stroke in the rat” (GeroScience, 2025).
# Columns and labels:
# in vitro = details: Sprague Dawley, rat, microsomes
# [1] = biological target: T1, Serotonin 5-HT2A receptor (Homo sapiens, UniProt P28223); experiment: PDSP radioligand binding; details: read-out: 3-MP concentration required to induce 50% inhibition of PDSP radioligand binding
# T1 construct: NIMH Psychoactive Drug Screening Program (PDSP)
# Protocol: (§1) To evaluate potential binding at classical neurological drug targets, 3-MP and 3,6’-DP were submitted to the National Institute on Mental Health (NIMH) Psychoactive Drug Screening Program (PDSP: Univ. N Carolina, Chapel Hill, NC, USA < https://pdspdb.unc.edu/pdspweb/ >) as powdered samples in the provided vials. The materials were then prepared at the PDSP in 10% DMSO, subjected to multiple assay screens, and processed as per the PDSP Assay Protocol Book (Version 3, March 2018). Compounds that exceeded an initial 10 uM binding threshold were then delegated for secondary dose–response analysis. This screen comprised a 45-target comprehensive panel of common brain receptor and transporter drug targets.
# Muscarinic M2 receptor = Muscarinic M2 receptor (Homo sapiens, UniProt P08172); experiment: PDSP radioligand binding; details: read-out: 3-MP concentration required to induce 50% inhibition of PDSP radioligand binding
# Protocol: as §1
# SERT transporter = SERT transporter (Homo sapiens, UniProt P31645); experiment: PDSP radioligand binding; details: read-out: 3-MP concentration required to induce 50% inhibition of PDSP radioligand binding
# Chain of SERT transporter (P31645 whole entry): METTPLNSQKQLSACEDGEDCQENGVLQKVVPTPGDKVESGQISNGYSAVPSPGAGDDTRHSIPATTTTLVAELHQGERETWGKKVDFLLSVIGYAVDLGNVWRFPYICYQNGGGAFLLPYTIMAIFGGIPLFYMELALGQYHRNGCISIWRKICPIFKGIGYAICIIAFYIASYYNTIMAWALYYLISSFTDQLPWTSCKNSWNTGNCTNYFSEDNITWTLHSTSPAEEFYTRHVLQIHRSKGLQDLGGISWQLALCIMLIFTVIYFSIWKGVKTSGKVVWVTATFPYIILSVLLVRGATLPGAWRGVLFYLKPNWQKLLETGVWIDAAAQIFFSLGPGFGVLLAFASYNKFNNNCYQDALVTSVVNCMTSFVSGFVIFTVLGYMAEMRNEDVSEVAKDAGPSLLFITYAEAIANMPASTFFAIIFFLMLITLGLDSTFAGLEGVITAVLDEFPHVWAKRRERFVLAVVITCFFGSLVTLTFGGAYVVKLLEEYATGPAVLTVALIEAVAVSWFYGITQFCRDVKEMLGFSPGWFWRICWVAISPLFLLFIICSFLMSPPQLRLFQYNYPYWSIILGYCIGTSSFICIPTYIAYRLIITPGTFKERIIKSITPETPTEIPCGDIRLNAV
# Protocol: as §1
# [2] = biological target: T2, Adrenergic Beta3 receptor (Homo sapiens, UniProt P13945); experiment: PDSP radioligand binding; details: read-out: 3-MP concentration required to induce 50% inhibition of PDSP radioligand binding
# T2 construct: NIMH Psychoactive Drug Screening Program (PDSP)
# Protocol: as §1
# [3] = biological target: T3, Adrenergic Alpha2C receptor (Homo sapiens, UniProt P18825); experiment: PDSP radioligand binding; details: read-out: 3-MP concentration required to induce 50% inhibition of PDSP radioligand binding
# T3 construct: NIMH Psychoactive Drug Screening Program (PDSP)
# Protocol: as §1
# [4] = biological target: T4, Serotonin 5-HT5A receptor (Homo sapiens, UniProt P47898); experiment: PDSP radioligand binding; details: read-out: 3-MP concentration required to induce 50% inhibition of PDSP radioligand binding
# T4 construct: NIMH Psychoactive Drug Screening Program (PDSP)
# Protocol: as §1
# [5] = biological target: T5, Serotonin 5-HT1D receptor (Homo sapiens, UniProt P28221); experiment: PDSP radioligand binding; details: read-out: 3-MP concentration required to induce 50% inhibition of PDSP radioligand binding
# T5 construct: NIMH Psychoactive Drug Screening Program (PDSP)
# T5 sequence (P28221 whole entry): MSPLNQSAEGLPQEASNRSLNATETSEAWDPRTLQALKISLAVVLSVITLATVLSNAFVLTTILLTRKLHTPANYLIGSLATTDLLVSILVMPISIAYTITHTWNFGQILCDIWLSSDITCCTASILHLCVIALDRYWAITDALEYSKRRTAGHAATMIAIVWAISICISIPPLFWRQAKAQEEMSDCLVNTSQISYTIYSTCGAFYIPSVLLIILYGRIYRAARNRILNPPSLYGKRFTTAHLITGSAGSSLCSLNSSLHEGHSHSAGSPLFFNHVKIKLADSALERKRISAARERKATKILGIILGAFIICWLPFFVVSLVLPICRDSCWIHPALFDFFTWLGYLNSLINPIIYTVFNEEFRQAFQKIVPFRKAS
# Protocol: as §1
# [6] = biological target: T6, Serotonin 5-HT7A receptor (Homo sapiens, UniProt P34969); experiment: PDSP radioligand binding; details: read-out: 3-MP concentration required to induce 50% inhibition of PDSP radioligand binding
# T6 construct: NIMH Psychoactive Drug Screening Program (PDSP)
# Protocol: as §1
# [7] = biological target: T7, Serotonin 5-HT1A receptor (Homo sapiens, UniProt P08908); experiment: PDSP radioligand binding; details: read-out: 3-MP concentration required to induce 50% inhibition of PDSP radioligand binding
# T7 construct: NIMH Psychoactive Drug Screening Program (PDSP)
# Protocol: as §1
# Histamine H1 receptor = Histamine H1 receptor (Homo sapiens, UniProt P35367); experiment: PDSP radioligand binding; details: read-out: 3-MP concentration required to induce 50% inhibition of PDSP radioligand binding
# Protocol: as §1
# [8] = biological target: T8, Adrenergic Alpha1B receptor (Homo sapiens, UniProt P35368); experiment: PDSP radioligand binding; details: read-out: 3-MP concentration required to induce 50% inhibition of PDSP radioligand binding
# T8 construct: NIMH Psychoactive Drug Screening Program (PDSP)
# Protocol: as §1
# Sigma 2 receptor = Sigma 2 receptor (Rattus norvegicus, UniProt Q5U3Y7); experiment: PDSP radioligand binding; details: read-out: 3-MP concentration required to induce 50% inhibition of PDSP radioligand binding
# Chain of Sigma 2 receptor (Q5U3Y7 whole entry): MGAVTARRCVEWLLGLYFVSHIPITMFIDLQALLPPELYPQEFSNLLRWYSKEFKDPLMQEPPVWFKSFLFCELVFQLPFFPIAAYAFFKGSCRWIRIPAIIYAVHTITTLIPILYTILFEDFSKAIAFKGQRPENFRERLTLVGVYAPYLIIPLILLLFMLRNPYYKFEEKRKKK
# Protocol: as §1
# [9] = biological target: T9, Adrenergic Alpha1A receptor (Homo sapiens, UniProt P35348); experiment: PDSP radioligand binding; details: read-out: 3-MP concentration required to induce 50% inhibition of PDSP radioligand binding
# T9 construct: NIMH Psychoactive Drug Screening Program (PDSP)
# T9 sequence (P35348 whole entry): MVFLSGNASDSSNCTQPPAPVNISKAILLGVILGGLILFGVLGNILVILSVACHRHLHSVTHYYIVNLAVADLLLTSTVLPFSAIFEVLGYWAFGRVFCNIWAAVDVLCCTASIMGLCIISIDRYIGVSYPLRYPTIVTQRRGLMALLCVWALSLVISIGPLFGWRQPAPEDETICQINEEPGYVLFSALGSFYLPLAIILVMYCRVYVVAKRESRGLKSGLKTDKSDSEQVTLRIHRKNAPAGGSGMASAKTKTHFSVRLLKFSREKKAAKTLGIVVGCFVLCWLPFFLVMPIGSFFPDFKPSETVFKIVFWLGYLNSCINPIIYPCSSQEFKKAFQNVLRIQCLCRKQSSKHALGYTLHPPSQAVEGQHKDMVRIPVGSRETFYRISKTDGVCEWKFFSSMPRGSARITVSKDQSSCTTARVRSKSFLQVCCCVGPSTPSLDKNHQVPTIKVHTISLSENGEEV
# Protocol: as §1
# Muscarinic M4 receptor = Muscarinic M4 receptor (Homo sapiens, UniProt P08173); experiment: PDSP radioligand binding; details: read-out: 3-MP concentration required to induce 50% inhibition of PDSP radioligand binding
# Protocol: as §1
# μ-opioid receptor = μ-opioid receptor (Homo sapiens, UniProt P35372); experiment: PDSP radioligand binding; details: read-out: 3-MP concentration required to induce 50% inhibition of PDSP radioligand binding
# Chain of μ-opioid receptor (P35372 whole entry): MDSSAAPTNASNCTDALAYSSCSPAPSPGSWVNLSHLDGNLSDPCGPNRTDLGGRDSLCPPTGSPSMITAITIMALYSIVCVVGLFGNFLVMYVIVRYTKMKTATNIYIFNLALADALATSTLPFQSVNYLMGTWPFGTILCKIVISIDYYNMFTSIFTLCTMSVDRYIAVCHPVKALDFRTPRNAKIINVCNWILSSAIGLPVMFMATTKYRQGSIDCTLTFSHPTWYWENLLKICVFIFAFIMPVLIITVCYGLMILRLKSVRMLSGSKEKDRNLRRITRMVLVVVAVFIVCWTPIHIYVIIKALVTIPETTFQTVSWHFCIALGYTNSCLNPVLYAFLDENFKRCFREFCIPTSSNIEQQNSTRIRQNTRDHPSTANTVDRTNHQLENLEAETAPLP
# Protocol: as §1
# Muscarinic M1 receptor = Muscarinic M1 receptor (Homo sapiens, UniProt P11229); experiment: PDSP radioligand binding; details: read-out: 3-MP concentration required to induce 50% inhibition of PDSP radioligand binding
# Chain of Muscarinic M1 receptor (P11229 whole entry): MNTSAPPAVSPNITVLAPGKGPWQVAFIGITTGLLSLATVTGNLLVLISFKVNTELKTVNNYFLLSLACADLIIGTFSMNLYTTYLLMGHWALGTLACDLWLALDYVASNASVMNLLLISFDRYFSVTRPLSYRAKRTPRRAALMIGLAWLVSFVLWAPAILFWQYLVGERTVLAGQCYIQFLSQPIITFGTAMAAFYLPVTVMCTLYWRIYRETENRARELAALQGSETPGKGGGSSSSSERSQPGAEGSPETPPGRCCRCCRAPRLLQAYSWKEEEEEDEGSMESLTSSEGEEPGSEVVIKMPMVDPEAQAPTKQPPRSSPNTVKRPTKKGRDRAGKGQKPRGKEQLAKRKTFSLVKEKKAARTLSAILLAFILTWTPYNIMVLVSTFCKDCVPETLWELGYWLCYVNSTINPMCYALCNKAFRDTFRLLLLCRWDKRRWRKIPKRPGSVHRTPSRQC
# Protocol: as §1
# [10] = biological target: T10, Adrenergic Alpha1D receptor (Homo sapiens, UniProt P25100); experiment: PDSP radioligand binding; details: read-out: 3-MP concentration required to induce 50% inhibition of PDSP radioligand binding
# T10 construct: NIMH Psychoactive Drug Screening Program (PDSP)
# T10 sequence (P25100 whole entry): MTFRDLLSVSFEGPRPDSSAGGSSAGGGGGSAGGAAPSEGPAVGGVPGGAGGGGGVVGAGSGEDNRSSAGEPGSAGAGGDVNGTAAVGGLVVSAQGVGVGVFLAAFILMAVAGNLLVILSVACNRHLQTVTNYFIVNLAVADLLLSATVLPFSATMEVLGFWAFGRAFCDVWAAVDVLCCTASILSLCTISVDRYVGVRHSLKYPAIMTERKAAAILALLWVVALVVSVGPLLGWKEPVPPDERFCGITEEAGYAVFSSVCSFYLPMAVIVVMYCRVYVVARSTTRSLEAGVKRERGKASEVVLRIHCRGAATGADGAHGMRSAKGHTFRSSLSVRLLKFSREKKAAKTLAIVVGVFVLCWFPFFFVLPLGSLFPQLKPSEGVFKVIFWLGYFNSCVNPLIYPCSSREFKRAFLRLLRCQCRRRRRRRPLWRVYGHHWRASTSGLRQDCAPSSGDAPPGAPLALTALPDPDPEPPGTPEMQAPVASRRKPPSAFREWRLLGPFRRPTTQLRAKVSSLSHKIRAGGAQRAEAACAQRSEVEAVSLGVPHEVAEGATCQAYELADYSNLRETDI
# Protocol: as §1
# NET transporter = NET transporter (Homo sapiens, UniProt P23975); experiment: PDSP radioligand binding; details: read-out: 3-MP concentration required to induce 50% inhibition of PDSP radioligand binding
# Chain of NET transporter (P23975 whole entry): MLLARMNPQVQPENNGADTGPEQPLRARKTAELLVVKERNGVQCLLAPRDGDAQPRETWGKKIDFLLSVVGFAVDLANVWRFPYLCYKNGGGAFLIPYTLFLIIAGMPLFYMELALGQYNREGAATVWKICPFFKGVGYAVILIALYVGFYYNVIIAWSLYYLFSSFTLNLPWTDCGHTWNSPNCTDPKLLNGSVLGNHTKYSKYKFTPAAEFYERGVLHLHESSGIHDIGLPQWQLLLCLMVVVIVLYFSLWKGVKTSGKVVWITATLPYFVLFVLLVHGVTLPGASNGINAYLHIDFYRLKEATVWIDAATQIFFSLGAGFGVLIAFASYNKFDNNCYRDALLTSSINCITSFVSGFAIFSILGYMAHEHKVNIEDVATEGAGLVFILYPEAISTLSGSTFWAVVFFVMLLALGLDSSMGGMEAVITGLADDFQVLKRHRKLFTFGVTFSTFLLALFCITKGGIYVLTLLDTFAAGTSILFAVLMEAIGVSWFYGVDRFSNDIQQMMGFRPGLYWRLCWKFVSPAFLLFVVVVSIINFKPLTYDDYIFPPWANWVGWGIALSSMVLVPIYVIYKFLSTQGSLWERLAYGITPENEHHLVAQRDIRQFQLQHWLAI
# Protocol: as §1
# [11] = biological target: T11, Serotonin 5-HT1E receptor (Homo sapiens, UniProt P28566); experiment: PDSP radioligand binding; details: read-out: 3-MP concentration required to induce 50% inhibition of PDSP radioligand binding
# T11 construct: NIMH Psychoactive Drug Screening Program (PDSP)
# Protocol: as §1
# Dopamine D5 receptor = Dopamine D5 receptor (Homo sapiens, UniProt P21918); experiment: PDSP radioligand binding; details: read-out: 3-MP concentration required to induce 50% inhibition of PDSP radioligand binding
# Protocol: as §1
# Serotonin 5-HT3 receptor = biological target: T12, Serotonin 5-HT3 receptor (Homo sapiens, UniProt P46098); experiment: PDSP radioligand binding; details: read-out: 3-MP concentration required to induce 50% inhibition of PDSP radioligand binding
# T12 construct: NIMH Psychoactive Drug Screening Program (PDSP)
# Protocol: as §1
# Dopamine D4 receptor = Dopamine D4 receptor (Homo sapiens, UniProt P21917); experiment: PDSP radioligand binding; details: read-out: 3-MP concentration required to induce 50% inhibition of PDSP radioligand binding
# Protocol: as §1
# [12] = biological target: T13, Serotonin 5-HT2B receptor (Homo sapiens, UniProt P41595); experiment: PDSP radioligand binding; details: read-out: 3-MP concentration required to induce 50% inhibition of PDSP radioligand binding
# T13 construct: NIMH Psychoactive Drug Screening Program (PDSP)
# T13 sequence (P41595 whole entry): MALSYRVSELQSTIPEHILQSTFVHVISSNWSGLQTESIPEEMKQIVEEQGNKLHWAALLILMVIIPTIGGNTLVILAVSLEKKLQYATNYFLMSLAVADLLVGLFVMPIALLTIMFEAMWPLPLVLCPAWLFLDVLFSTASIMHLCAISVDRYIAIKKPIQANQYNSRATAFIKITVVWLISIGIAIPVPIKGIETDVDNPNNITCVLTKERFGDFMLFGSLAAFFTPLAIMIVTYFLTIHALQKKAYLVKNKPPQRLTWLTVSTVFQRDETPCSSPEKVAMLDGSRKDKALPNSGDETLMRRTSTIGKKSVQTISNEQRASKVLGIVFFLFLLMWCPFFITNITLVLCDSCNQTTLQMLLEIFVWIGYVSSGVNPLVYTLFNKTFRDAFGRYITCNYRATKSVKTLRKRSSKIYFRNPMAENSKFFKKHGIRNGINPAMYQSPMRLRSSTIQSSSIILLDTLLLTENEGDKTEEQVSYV
# Protocol: as §1
# Histamine H4 receptor = Histamine H4 receptor (Homo sapiens, UniProt Q9H3N8); experiment: PDSP radioligand binding; details: read-out: 3-MP concentration required to induce 50% inhibition of PDSP radioligand binding
# Protocol: as §1
# δ-opioid receptor = δ-opioid receptor (Homo sapiens, UniProt P41143); experiment: PDSP radioligand binding; details: read-out: 3-MP concentration required to induce 50% inhibition of PDSP radioligand binding
# Protocol: as §1
# GABAA receptor = experiment: PDSP radioligand binding; details: read-out: 3-MP concentration required to induce 50% inhibition of PDSP radioligand binding
# Protocol: as §1
# [13] = biological target: T14, Benzodiazepine PBR receptor (Rattus norvegicus, UniProt P16257); experiment: PDSP radioligand binding; details: read-out: 3-MP concentration required to induce 50% inhibition of PDSP radioligand binding
# T14 construct: NIMH Psychoactive Drug Screening Program (PDSP)
# Protocol: as §1
# Muscarinic M3 receptor = Muscarinic M3 receptor (Homo sapiens, UniProt P20309); experiment: PDSP radioligand binding; details: read-out: 3-MP concentration required to induce 50% inhibition of PDSP radioligand binding
# Protocol: as §1
# DAT transporter = DAT transporter (Homo sapiens, UniProt Q01959); experiment: PDSP radioligand binding; details: read-out: 3-MP concentration required to induce 50% inhibition of PDSP radioligand binding
# Protocol: as §1
# [14] = biological target: T15, Serotonin 5-HT1B receptor (Homo sapiens, UniProt P28222); experiment: PDSP radioligand binding; details: read-out: 3-MP concentration required to induce 50% inhibition of PDSP radioligand binding
# T15 construct: NIMH Psychoactive Drug Screening Program (PDSP)
# Protocol: as §1
# Muscarinic M5 receptor = Muscarinic M5 receptor (Homo sapiens, UniProt P08912); experiment: PDSP radioligand binding; details: read-out: 3-MP concentration required to induce 50% inhibition of PDSP radioligand binding
# Protocol: as §1
# [15] = biological target: T16, Adrenergic Alpha2A receptor (Homo sapiens, UniProt P08913); experiment: PDSP radioligand binding; details: read-out: 3-MP concentration required to induce 50% inhibition of PDSP radioligand binding
# T16 construct: NIMH Psychoactive Drug Screening Program (PDSP)
# Protocol: as §1
# [16] = biological target: T17, Adrenergic Beta2 receptor (Homo sapiens, UniProt P07550); experiment: PDSP radioligand binding; details: read-out: 3-MP concentration required to induce 50% inhibition of PDSP radioligand binding
# T17 construct: NIMH Psychoactive Drug Screening Program (PDSP)
# Protocol: as §1
# Dopamine D1 receptor = biological target: T18, Dopamine D1 receptor (Homo sapiens, UniProt P21728); experiment: PDSP radioligand binding; details: read-out: 3-MP concentration required to induce 50% inhibition of PDSP radioligand binding
# T18 construct: NIMH Psychoactive Drug Screening Program (PDSP)
# Protocol: as §1
# [17] = biological target: T19, Serotonin 5-HT2C receptor (Homo sapiens, UniProt P28335); experiment: PDSP radioligand binding; details: read-out: 3-MP concentration required to induce 50% inhibition of PDSP radioligand binding
# T19 construct: NIMH Psychoactive Drug Screening Program (PDSP)
# Protocol: as §1
# [18] = biological target: T20, Adrenergic Beta1 receptor (Homo sapiens, UniProt P08588); experiment: PDSP radioligand binding; details: read-out: 3-MP concentration required to induce 50% inhibition of PDSP radioligand binding
# T20 construct: NIMH Psychoactive Drug Screening Program (PDSP)
# Protocol: as §1
# [19] = biological target: T21, Adrenergic Alpha2B receptor (Homo sapiens, UniProt P18089); experiment: PDSP radioligand binding; details: read-out: 3-MP concentration required to induce 50% inhibition of PDSP radioligand binding
# T21 construct: NIMH Psychoactive Drug Screening Program (PDSP)
# T21 sequence (P18089 whole entry): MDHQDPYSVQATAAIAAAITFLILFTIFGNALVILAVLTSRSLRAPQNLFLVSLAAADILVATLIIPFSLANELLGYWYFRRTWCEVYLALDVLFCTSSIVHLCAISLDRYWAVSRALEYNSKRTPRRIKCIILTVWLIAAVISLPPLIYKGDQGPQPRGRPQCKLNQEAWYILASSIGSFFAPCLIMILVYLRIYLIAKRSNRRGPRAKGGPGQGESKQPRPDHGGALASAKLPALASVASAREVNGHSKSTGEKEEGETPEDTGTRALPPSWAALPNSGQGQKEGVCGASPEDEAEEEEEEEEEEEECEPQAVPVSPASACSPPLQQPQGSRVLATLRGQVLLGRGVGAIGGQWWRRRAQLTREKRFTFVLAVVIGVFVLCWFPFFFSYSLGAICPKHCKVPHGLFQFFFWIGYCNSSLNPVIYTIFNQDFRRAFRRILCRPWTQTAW
# Protocol: as §1
# Histamine H2 receptor = Histamine H2 receptor (Homo sapiens, UniProt P25021); experiment: PDSP radioligand binding; details: read-out: 3-MP concentration required to induce 50% inhibition of PDSP radioligand binding
# Protocol: as §1
smiles,measurement,setting,value
"Nc1cccc2c1C(=S)N(C1CCC(=O)NC1=O)C2=O (centres unmarked) [3-MP, 3-Monothiopomalidomide]",CLint scaled at 1 μM,in vitro,< 17.3 mL/min/kg
same,half-life at 1 μM,in vitro,> 2.42 h
same,microsomal CLint at 1 μM,in vitro,< 9.6 µL/min/mg
same,IC50,[1],> 10 µM
same,IC50,Muscarinic M2 receptor,> 10 µM
same,IC50,SERT transporter,> 10 µM
same,IC50,[2],> 10 µM
same,IC50,[3],> 10 µM
same,IC50,[4],> 10 µM
same,IC50,[5],> 10 µM
same,IC50,[6],> 10 µM
same,IC50,[7],> 10 µM
same,IC50,Histamine H1 receptor,> 10 µM
same,IC50,[8],> 10 µM
same,IC50,Sigma 2 receptor,> 10 µM
same,IC50,[9],> 10 µM
same,IC50,Muscarinic M4 receptor,> 10 µM
same,IC50,μ-opioid receptor,> 10 µM
same,IC50,Muscarinic M1 receptor,> 10 µM
same,IC50,[10],> 10 µM
same,IC50,NET transporter,> 10 µM
same,IC50,[11],> 10 µM
same,IC50,Dopamine D5 receptor,> 10 µM
same,IC50,Serotonin 5-HT3 receptor,> 10 µM
same,IC50,Dopamine D4 receptor,> 10 µM
same,IC50,[12],> 10 µM
same,IC50,Histamine H4 receptor,> 10 µM
same,IC50,δ-opioid receptor,> 10 µM
same,IC50,GABAA receptor,> 10 µM
same,IC50,[13],> 10 µM
same,IC50,Muscarinic M3 receptor,> 10 µM
same,IC50,DAT transporter,> 10 µM
same,IC50,[14],> 10 µM
same,IC50,Muscarinic M5 receptor,> 10 µM
same,IC50,[15],> 10 µM
same,IC50,[16],> 10 µM
same,IC50,Dopamine D1 receptor,> 10 µM
same,IC50,[17],> 10 µM
same,IC50,[18],> 10 µM
same,IC50,[19],> 10 µM
same,IC50,Histamine H2 receptor,> 10 µM
